Data: the supplement of paper PMC4862054

Assays:
Details in all cases: incubation time: 72 h
[1] = tested on: BT-474; assay: normalised response (% of control), CellTox Green; higher = less cell death (100 = DMSO, 0 = benzethonium chloride kill control)
Summary of the method: (§1)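 Every value is a normalised signal taken at one concentration of a dilution series. Compound was placed in 384-well plates at 5 concentrations in 10-fold steps over a compound-specific 10,000-fold range, and 20 µl of breast cancer cell suspension was seeded onto it. After 72 h, CellTox Green fluorescence (485/520 nm) was measured first and CellTiter-Glo luminescence second, following 10 min at room temperature. Each plate was scaled to 0.1 % DMSO (100) and a positive kill control (0).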

[2] = tested on: BT-549; assay: as above
Summary of the method: as §1

[3] = tested on: CAL-120; assay: as above
Summary of the method: as §1

[4] = tested on: CAL-148; assay: as above
Summary of the method: as §1

[5] = tested on: CAL-51; assay: as above
Summary of the method: as §1

[6] = tested on: CAL-85-1; assay: as above
Summary of the method: as §1

[7] = tested on: DU-4475; assay: as above
Summary of the method: as §1

[8] = tested on: HCC1143; assay: as above
Summary of the method: as §1

[9] = tested on: HCC1599; assay: as above
Summary of the method: as §1

[10] = tested on: HCC1937; assay: as above
Summary of the method: as §1

[11] = tested on: HDQ-P1; assay: as above
Summary of the method: as §1

[12] = tested on: Hs578T; assay: as above
Summary of the method: as §1

[13] = tested on: MCF-10A; assay: as above
Summary of the method: as §1

[14] = tested on: MDA-MB-231; assay: as above
Summary of the method: as §1

[15] = tested on: MDA-MB-436; assay: as above
Summary of the method: as §1

[16] = tested on: MDA-MB-453; assay: as above
Summary of the method: as §1

[17] = tested on: MDA-MB-468; assay: as above
Summary of the method: as §1

[18] = tested on: MFM-223; assay: as above
Summary of the method: as §1

[19] = tested on: BT-474; assay: normalised response (% of control), CellTiter-Glo; higher = more viable cells (100 = DMSO, 0 = benzethonium chloride kill control)
Summary of the method: as §1

[20] = tested on: BT-549; assay: as above
Summary of the method: as §1

[21] = tested on: CAL-120; assay: as above
Summary of the method: as §1

[22] = tested on: CAL-148; assay: as above
Summary of the method: as §1

[23] = tested on: CAL-51; assay: as above
Summary of the method: as §1

[24] = tested on: CAL-85-1; assay: as above
Summary of the method: as §1

[25] = tested on: DU-4475; assay: as above
Summary of the method: as §1

[26] = tested on: HCC1143; assay: as above
Summary of the method: as §1

[27] = tested on: HCC1599; assay: as above
Summary of the method: as §1

[28] = tested on: HCC1937; assay: as above
Summary of the method: as §1

[29] = tested on: HDQ-P1; assay: as above
Summary of the method: as §1

[30] = tested on: Hs578T; assay: as above
Summary of the method: as §1

[31] = tested on: MCF-10A; assay: as above
Summary of the method: as §1

[32] = tested on: MDA-MB-231; assay: as above
Summary of the method: as §1

[33] = tested on: MDA-MB-436; assay: as above
Summary of the method: as §1

[34] = tested on: MDA-MB-453; assay: as above
Summary of the method: as §1

[35] = tested on: MDA-MB-468; assay: as above
Summary of the method: as §1

[36] = tested on: MFM-223; assay: as above
Summary of the method: as §1

[37] = tested on: SK-BR-3; assay: as above
Summary of the method: as §1

Compound | normalised response [1] | normalised response [2] | normalised response [3] | normalised response [4] | normalised response [5] | normalised response [6] | normalised response [7] | normalised response [8] | normalised response [9] | normalised response [10] | normalised response [11] | normalised response [12] | normalised response [13] | normalised response [14] | normalised response [15] | normalised response [16] | normalised response [17] | normalised response [18] | normalised response [19] | normalised response [20] | normalised response [21] | normalised response [22] | normalised response [23] | normalised response [24] | normalised response [25] | normalised response [26] | normalised response [27] | normalised response [28] | normalised response [29] | normalised response [30] | normalised response [31] | normalised response [32] | normalised response [33] | normalised response [34] | normalised response [35] | normalised response [36] | normalised response [37]
CCC/C=C/C=C/C(=O)O[C@H]1/C(=C/C(=O)OC)C[C@H]2C[C@H]([C@@H](C)O)OC(=O)C[C@H](O)C[C@@H]3C[C@H](OC(C)=O)C(C)(C)[C@](O)(C[C@@H]4C/C(=C/C(=O)OC)C[C@H](/C=C/C(C)(C)[C@]1(O)O2)O4)O3 [Bryostatin 1] (1 nM) | 86.8% | 111% | 103% | 111% | 91% | 97.7% | 106% | 117% | 111% | 123% | 75.6% | 94% | 98.5% | 113% | 100% | 94.6% | 105% | 104% | 92.3% | 101% | 103% | 116% | 58% | 95.5% | 91.6% | 102% | 99.3% | 93% | 88.6% | 79.6% | 107% | 95.9% | 102% | 103% | 99.8% | 104% | 66.2%
Cc1nc(Nc2ncc(C(=O)Nc3c(C)cccc3Cl)s2)cc(N2CCN(CCO)CC2)n1 [Dasatinib] (10 nM) | 102% | 111% | 100% | 93.9% | 86.6% | 102% | 110% | 56.7% | 97.7% | 93.1% | 96.7% | 84.7% | 58.3% | 84.2% | 98% | 106% | 107% | 98.9% | 74.5% | 97.2% | 93.7% | 99.2% | 82% | 95.7% | 99.4% | 90.2% | 94.3% | 90.5% | 74.8% | 94.3% | 71.5% | 70.6% | 97.1% | 99.5% | 92.2% | 95% | 101%
C[C@]12O[C@H](C[C@]1(O)CO)n1c3ccccc3c3c4c(c5c6ccccc6n2c5c31)CNC4=O [Lestaurtinib] (10 nM) | 99.3% | 100% | 97.4% | 87.7% | 98.4% | 96.2% | 94.2% | 50.3% | 90.6% | 103% | 104% | 108% | 91.2% | 97.3% | 78.8% | 101% | 60% | 103% | 98.8% | 109% | 92.2% | 107% | 103% | 102% | 98% | 105% | 96.9% | 94.3% | 102% | 90.2% | 83.7% | 101% | 93.8% | 81.1% | 78.7% | 97.2% | 82.4%
c1cc(CN2CCCNCCNCCCNCC2)ccc1CN1CCCNCCNCCCNCC1 [Plerixafor] (100 nM) | 85.5% | 95.9% | 93.5% | 94.4% | 59.6% | 92.5% | 91.7% | 95.1% | 88.9% | 73.9% | 101% | 99.3% | 97.7% | 96.5% | 74.2% | 91.3% | 89.8% | 50.4% | 98.8% | 109% | 100% | 89.8% | 67.7% | 101% | 88.1% | 104% | 95.3% | 96.6% | 103% | 94.8% | 79.7% | 97.1% | 92% | 83% | 97.6% | 85.1% | 84.1%
C[C@]12C=CC(=O)C=C1CC[C@@H]1[C@@H]2[C@@H](O)C[C@@]2(C)[C@H]1CC[C@]2(O)C(=O)CO [Prednisolone] (100 nM) | 101% | 97.2% | 102% | 103% | 117% | 85.8% | 98.8% | 118% | 103% | 115% | 106% | 110% | 95.5% | 134% | 89.9% | 104% | 108% | 96.1% | 146% | 96% | 87.4% | 114% | 112% | 109% | 106% | 102% | 105% | 103% | 89.3% | 113% | 102% | 146% | 101% | 95% | 109% | 110% | 104%
Cn1cc(CNCC2CCN(c3ncc(C(=O)NO)cn3)CC2)c2ccccc21 [Quisinostat] (10 nM) | 93% | 95.5% | 91.4% | 95.8% | 126% | 77.9% | 97.8% | 114% | 104% | 114% | 109% | 88.8% | 96.7% | 101% | 92.3% | 97.7% | 57.7% | 103% | 106% | 88% | 86.2% | 87.6% | 99.2% | 72.5% | 83.9% | 75.8% | 89.8% | 85.2% | 75.4% | 85.7% | 78.8% | 103% | 87.2% | 56.9% | 91.2% | 103% | 70.1%
CNC(=O)c1cc(Oc2ccc(NC(=O)Nc3ccc(Cl)c(C(F)(F)F)c3)cc2)ccn1 [Sorafenib] (10 nM) | 99.3% | 108% | 96% | 103% | 106% | 102% | 98.4% | 95.9% | 91.9% | 66.5% | 107% | 95% | 66.7% | 108% | 103% | 106% | 97.8% | 101% | 97.8% | 108% | 112% | 107% | 95.9% | 102% | 101% | 102% | 108% | 95.2% | 107% | 98.8% | 108% | 105% | 105% | 100% | 115% | 106% | 103%
CCN(CC)CCNC(=O)c1c(C)[nH]c(/C=C2\C(=O)Nc3ccc(F)cc32)c1C [Sunitinib] (10 nM) | 100% | 92.9% | 99.3% | 105% | 108% | 89.5% | 98.4% | 57.7% | 114% | 66.9% | 111% | 82.4% | 109% | 104% | 103% | 107% | 141% | 98% | 101% | 108% | 109% | 106% | 98.8% | 103% | 104% | 108% | 96.3% | 99.2% | 99.3% | 103% | 98.5% | 107% | 96.9% | 97.4% | 102% | 105% | 101%
